This assay deals with soybeans (Glycine max). Description: Example 1: soybean seed treatment with fluensulfone plus a single amino acid (pesticide phytotoxicity reduction). Particulars: conclusion of Example 1; soybean seeds, 0.1% (w/v) amino acid. The format is in vivo. The procedure: To 10 g of seeds of soybeans (scientific name: Glycine max), fluensulfone (Nimitz, ADAMA, 40% (w/v) Fluensulfone-containing product) or fluensulfone with 1 ml of 0.1% (w/v) amino acid solution were treated as a pesticide. […] The treatment groups were as Table 1 below.
After mixing the solutions of each group well, they were sufficiently mixed for about 1 minute so that the solutions were evenly applied to soybean seeds. After than, they were taken out in a sample dish and air-drying was performed until the solutions were dried.
Soybean seeds were sown, and the germination rate was measured by counting the number of germinated seeds among all the seeds in 7 days after sowing, and this was shown in FIG. 1.
In 20 days after sowing, the length of the shoots (from the ground to the growth point) was measured with a ruler and this was shown in FIG. 2, and the photographs of the shoots and roots were shown in FIG. 3 and FIG. 4.
In the case of `N[C@@H](Cc1c[nH]cn1)C(=O)O` [histidine], the phytotoxicity by fluensulfone entry is “reduced”.
Then `CC(C)C[C@H](N)C(=O)O` [leucine], with “reduced”; and `N[C@@H](CCC(=O)O)C(=O)O.[Na]` [sodium glutamic acid], with “reduced”.

These data come from patent US20250185651A1, “COMPOSITION FOR PESTICIDE PHYTOTOXICITY REDUCTION COMPRISING AMINO ACID” (CJ CheilJedang Corporation, priority 2021, published 2025).
